Assay results from patent publication US20250235496A1, “USE OF BELLIDIFOLIN (BEL) AND/OR BEL-CONTAINING EXTRACT IN PREPARATION OF ANTIDEPRESSANT PRODUCT” (priority 2024, published 2025).

Test: Mass spectrometry imaging of mouse brain
Assay type: in vivo, mice
Conditions: 10, 20 and 40 mg/kg, 21 d

SMILES: COc1cc(O)c2c(=O)c3c(O)ccc(O)c3oc2c1 [BEL, bellidifolin]
- BEL signal in brain (mass spectrometry imaging), passage of BBB: BEL signals were detected
